Each structure is given as a SMILES string. Structures can show the parent of a compound that is named as a salt.

In one data set the target is PDE4. The experiment in a line: Measurement of PDE4 enzyme inhibiting action. Conditions: PDE4 enzyme solution from polymorphonuclear leukocytes of healthy volunteer; 0.2 μM [3H]cAMP, 30° C., 30 minutes; read-out: PDE4 inhibition IC50 value. It is filed as biochemical, human. As for the experimental part:
Preparation of a PDE4 enzyme solution was carried out according to the method of Cooper et al. (Br. J. Pharmacol., 126, 1863 (1999)) by modifying a part thereof. Heparin-treated peripheral blood from healthy volunteer was stratified by a blood cell separating solution (Polymorphprep™, available from AXIS-SHIELD PoC AS CO.), and centrifugation was carried out at 20° C. with 1900 rpm for 27 minutes to obtain polymorphonuclear leukocytes. The polymorphonuclear leukocytes were washed with a Hanks' balanced salt solution, then, a mixed solution comprising 70% of 10 mM 3-morpholinopropane sulfonic acid buffer solution (pH 7.4) containing 1 mM EGTA, 1 mM magnesium acetate and 5 mM dithiothreitol and 30% of ethylene glycol was added thereto to dissolve the same under ice-cooling, and the obtained cell dissolved solution was used as a PDE4 enzyme solution.
Measurement of PDE4 activity was carried out according to the method of Owens, et al. (Biochem. J., 326, 53 (1997)) by modifying a part thereof. The PDE4 enzyme solution was incubated with a compound to be tested dissolved in dimethylsulfoxide in 80 mM Tris-HCl buffer solution (pH 7.4) containing 0.2 μM [^3H] cAMP, 0.1 mM cGMP, 20 mM MgCl2 and 12 mM 2-mercaptoethanol at 30° C. for 30 minutes. Trifluoroacetic acid (final concentration: 1%) was added to the mixture to stop the reaction, and the reaction mixture was added to neutral alumina column (BOND ELUT™, available from VARIAN INC.). After the column was washed with 100 mM Tris-HCl buffer solution (pH 8.0), [^3H] 5′-AMP was eluted with 2N sodium hydroxide solution, and radioactivity of the eluent was measured by a liquid scintillation analyzer.
A concentration of the compound to be tested which inhibits 50% of PDE4 activity was calculated from the relation between the concentration of the compound to be tested which had been added and PDE4 activity as an IC50 value.

For the molecule `O=c1[nH]ncc2[nH]c(-c3ccc(OC(F)F)c(OC4CC4)c3)c(Br)c12` [Example 3, 3-Bromo-2-(3-cyclopropoxy-4-difluoromethoxyphenyl)-1,5-dihydropyrrolo[2,3-d]pyridazin-4-one], the melting point is 267 to 270 °C (dec.). Also, at PDE4, the IC50 was 5.2 nM.
For the molecule `CCCCc1c(-c2ccc(OC(F)F)c(OC3CC3)c2)[nH]c2cn[nH]c(=O)c12` [Example 8, 3-Butyl-2-(3-cyclopropoxy-4-difluoromethoxyphenyl)-1,5-dihydropyrrolo[2,3-d]pyridazin-4-one], the melting point was 192 to 194 °C. On PDE4, the IC50 is 1.7 nM.
`CC(C)Cc1c(-c2ccc(OC(F)F)c(OC3CC3)c2)[nH]c2cn[nH]c(=O)c12` [Example 9, 2-(3-Cyclopropoxy-4-difluoromethoxyphenyl)-3-isobutyl-1,5-dihydropyrrolo[2,3-d]pyridazin-4-one] yielded a melting point of 239 to 241 °C. Besides, on PDE4, the concentration for half-maximal inhibition (IC50) came out at 1.8 nM.
Take `O=c1[nH]ncc2[nH]c(-c3ccc(OC(F)F)c(OC4CC4)c3)c(COC3CCC3)c12` [Example 13, 3-Cyclobutoxymethyl-2-(3-cyclopropoxy-4-difluoromethoxyphenyl)-1,5-dihydropyrrolo[2,3-d]pyridazin-4-one]: the melting point was in the range of 95 to 100 °C. Moreover, the IC50 at PDE4 turned out to be 0.65 nM.
The matching figures for `O=c1[nH]ncc2[nH]c(-c3ccc(OC(F)F)c(OC4CC4)c3)c(C3CC3)c12` [Example 14, 2-(3-Cyclopropoxy-4-difluoromethoxyphenyl)-3-cyclopropyl-1,5-dihydropyrrolo[2,3-d]pyridazin-4-one]: 248 to 249 °C and 4.7 nM.
The matching figures for `C#Cc1c(-c2ccc(OC(F)F)c(OC3CC3)c2)[nH]c2cn[nH]c(=O)c12` [Example 16, 2-(3-Cyclopropoxy-4-difluoromethoxyphenyl)-3-ethynyl-1,5-dihydropyrrolo[2,3-d]pyridazin-4-one]: above 300 °C and 13 nM.
The matching figures for `O=c1[nH]ncc2[nH]c(-c3ccc(OC(F)F)c(OC4CC4)c3)c(Cc3ccccc3)c12` [Example 19, 3-Benzyl-2-(3-cyclopropoxy-4-difluoromethoxyphenyl)-1,5-dihydropyrrolo[2,3-d]pyridazin-4-one]: 215 to 217 °C and 0.18 nM.
For the molecule `O=c1[nH]ncc2[nH]c(-c3ccc(OC(F)F)c(OC4CC4)c3)c(C(O)c3ccccc3)c12` (stereo not shown) [Example 20, 2-(3-Cyclopropoxy-4-difluoromethoxyphenyl)-3-hydroxyphenylmethyl-1,5-dihydropyrrolo[2,3-d]pyridazin-4-one], the IC50 at PDE4 was 0.23 nM.
As to `COc1ccc(Cc2c(-c3ccc(OC(F)F)c(OC4CC4)c3)[nH]c3cn[nH]c(=O)c23)cn1` [Example 29, 2-(3-Cyclopropoxy-4-difluoromethoxyphenyl)-3-(6-methoxy-3-pyridylmethyl)-1,5-dihydropyrrolo[2,3-d]pyridazin-4-one], the melting point lay in the range of 220 to 221 °C. Also, at PDE4, the IC50 was determined as 0.57 nM.
`O=c1[nH]ncc2[nH]c(-c3ccc(OC(F)F)c(OC4CCC4)c3)cc12` [Example 31, 2-(3-Cyclobutoxy-4-difluoromethoxyphenyl)-1,5-dihydropyrrolo[2,3-d]pyridazin-4-one] showed a melting point of 289 to 291 °C. In addition, the IC50 at PDE4 turned out to be 9.1 nM.
In turn, `O=c1[nH]ncc2[nH]c(-c3ccc(OC(F)F)c(OC4CCC4)c3)c(Br)c12` [Example 33, 3-Bromo-2-(3-cyclobutoxy-4-difluoromethoxyphenyl)-1,5-dihydropyrrolo[2,3-d]pyridazin-4-one] gave a melting point of 234 to 238 °C. Further, the IC50 at PDE4 is 1.8 nM.
The corresponding values for `O=c1[nH]ncc2[nH]c(-c3ccc(OC(F)F)c(OC4CCC4)c3)c(-c3ccccc3)c12` [Example 34, 2-(3-Cyclobutoxy-4-difluoromethoxyphenyl)-3-phenyl-1,5-dihydropyrrolo[2,3-d]pyridazin-4-one] are 280 to 284 °C and 8.7 nM.
The corresponding values for `O=c1[nH]ncc2[nH]c(-c3ccc(OC(F)F)c(OCC4CC4)c3)c(Cl)c12` [Example 36, 3-Chloro-2-(3-cyclopropylmethoxy-4-difluoromethoxyphenyl)-1,5-dihydropyrrolo[2,3-d]pyridazin-4-one] are 258 to 260 °C and 7.9 nM.
Regarding `CCc1c(-c2ccc(OC(F)F)c(OCC3CC3)c2)[nH]c2cn[nH]c(=O)c12` [Example 37, 2-(3-Cyclopropylmethoxy-4-difluoromethoxyphenyl)-3-ethyl-1,5-dihydropyrrolo[2,3-d]pyridazin-4-one HCl adduct], on PDE4, the 50% inhibitory concentration (IC50) is 6.6 nM.
The molecule `O=c1[nH]ncc2[nH]c(-c3ccc(OC(F)F)c(OCC4CC4)c3)c(-c3ccccc3)c12` [Example 38, 2-(3-Cyclopropylmethoxy-4-difluoromethoxyphenyl)-3-phenyl-1,5-dihydropyrrolo[2,3-d]pyridazin-4-one] came in with a melting point of 249 to 251 °C. In addition, at PDE4, the half-maximal inhibitory concentration (IC50) was determined as 7.1 nM.
For `CC(C)Oc1cc(-c2[nH]c3cn[nH]c(=O)c3c2Br)ccc1OC(F)F` [Example 41, 3-Bromo-2-(4-difluoromethoxy-3-isopropoxyphenyl)-1,5-dihydropyrrolo[2,3-d]pyridazin-4-one], the IC50 at PDE4 turned out to be 9.9 nM.
`CCCCc1c(-c2ccc(OC)c(OC3CC3)c2)[nH]c2cn[nH]c(=O)c12` [Example 44, 3-Butyl-2-(3-cyclopropoxy-4-methoxyphenyl)-1,5-dihydropyrrolo[2,3-d]pyridazin-4-one] yielded a melting point of 198 to 200 °C. Moreover, the IC50 at PDE4 amounted to 2.6 nM.
The matching figures for `O=c1[nH]ncc2[nH]c(-c3ccc(OC(F)F)c4c3CC3(CCCC3)O4)cc12` [Example 49, 2-(7-Difluoromethoxy-2,3-dihydrobenzofuran-2-spiro-1′-cyclopentan-4-yl)-1,5-dihydropyrrolo[2,3-d]pyridazin-4-one]: 290 to 295 °C and 3.5 nM.
The corresponding values for `COc1ccc(-c2cc3c(=O)[nH]ncc3[nH]2)c2c1OC1(CCCC1)C2` [Example 50, 2-(2,3-Dihydro-7-methoxybenzofuran-2-spiro-1′-cyclopentan-4-yl)-1,5-dihydropyrrolo[2,3-d]pyridazin-4-one] are 265 °C (dec.) and 16 nM.
As to `CC1(C)C=Cc2c(-c3[nH]c4cn[nH]c(=O)c4c3Cl)ccc(OC(F)F)c2O1` [Example 52, 3-Chloro-2-(8-difluoromethoxy-2,2-dimethyl-2H-chromen-5-yl)-1,5-dihydropyrrolo[2,3-d]pyridazin-4-one], the melting point was 226 to 234 °C. For the same molecule, at PDE4, the IC50 stood at 8 nM.
For the molecule `Cc1c(-c2ccc(OC(F)F)c3c2C=CC(C)(C)O3)[nH]c2cn[nH]c(=O)c12` [Example 53, 2-(8-Difluoromethoxy-2,2-dimethyl-2H-chromen-5-yl)-3-methyl-1,5-dihydropyrrolo[2,3-d]pyridazin-4-one HCl adduct], at PDE4, the IC50 was 17 nM.
For the molecule `O=c1[nH]ncc2[nH]c(-c3ccc(OC(F)F)c4c3C=CC3(CCCC3)O4)c(Cl)c12` [Example 57, 3-Chloro-2-(8-difluoromethoxy-2H-chromen-2-spiro-1′-cyclopentan-5-yl)-1,5-dihydropyrrolo[2,3-d]pyridazin-4-one], the melting point is above 300 °C. The IC50 at PDE4 is 11 nM.
For the molecule `O=c1[nH]ncc2[nH]c(-c3ccc(OC(F)F)c4c3C=CC(C3CC3)O4)cc12` (stereo not shown) [Example 58, 2-(2-Cyclopropyl-8-difluoromethoxy-2H-chromen-5-yl)-1,5-dihydropyrrolo[2,3-d]pyridazin-4-one], the melting point is 232 to 242 °C. In addition, the IC50 at PDE4 worked out at 36 nM.
`CC(C)OCc1c(-c2ccc(OC(F)F)c(OC3CC3)c2)[nH]c2cn[nH]c(=O)c12` [Example 60, 2-(3-Cyclopropoxy-4-difluoromethoxyphenyl)-3-isopropoxymethyl-1,5-dihydropyrrolo[2,3-d]pyridazin-4-one] had a melting point of 196 to 197 °C. Further, the IC50 at PDE4 worked out at 3 nM.
With `C#CCc1c(-c2ccc(OC(F)F)c(OC3CC3)c2)[nH]c2cn[nH]c(=O)c12` [Example 71, 2-(3-Cyclopropoxy-4-difluoromethoxyphenyl)-3-(2-propynyl)-1,5-dihydropyrrolo[2,3-d]pyridazin-4-one], the melting point fell in the range of 245 to 246 °C.
Regarding `C=CCc1c(-c2ccc(OC(F)F)c(OC3CC3)c2)[nH]c2cn[nH]c(=O)c12` [Example 74, 2-(3-Cyclopropoxy-4-difluoromethoxyphenyl)-3-(2-propenyl)-1,5-dihydropyrrolo[2,3-d]pyridazin-4-one], the melting point was in the range of 176 to 179 °C.

As a reminder, the IC50 is the point on the concentration scale where inhibition reaches its midpoint. In general, melting point refers to the temperature of the solid-liquid transition.

(Values after US8450319B2, “Pyrrolopyridazinone compound” (Ube Industries, Ltd., priority 2006, dated 2013).)
